Read-outs that look alike come from different tables or passages of the source.
Key:
barnyardgrass = experiment: Test A pre-/postemergence herbicide test; assay type: in vivo, Echinochloa crus-galli; settings: for pest or weed control at 500 g/ha / pest or weed control at 2000 g/ha: Echinochloa crus-galli, 240 h
Procedure, shortened: (§1)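 Pre: seeded sandy loam, directed soil spray, compound in non-phytotoxic solvent + surfactant. Post: 1–2-leaf plants (2–10 cm), sprayed to runoff. Greenhouse ~10 d; visual injury vs untreated, 0–100 scale.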

redroot pigweed = experiment: Test A pre-/postemergence herbicide test; assay type: in vivo, Amaranthus retroflexus; settings: for pest or weed control at 500 g/ha / pest or weed control at 2000 g/ha: Amaranthus retroflexus, 240 h
Procedure, shortened: as §1

rice = experiment: Test B pre-/postemergence herbicide test; assay type: in vivo, Oryza sativa; settings: for Plant response rating, Rice: preemergence
Procedure, shortened: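 Species tested were Echinochloa crus-galli, Ipomoea coccinea, Xanthium strumarium and Oryza sativa, treated both before emergence and at the 1- to 4-leaf stage; rice and barnyardgrass were also tested under flooding at 2 leaves. Greenhouse incubation lasted 13–15 days before visual 0–100 scoring.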

cocklebur = experiment: Test C pre-/postemergence herbicide test; assay type: in vivo, Xanthium strumarium
Procedure, shortened: (§2)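 Visual injury scores run from 0 (no effect) to 100 (complete control), assessed relative to untreated controls 12 to 14 days after treatment in the greenhouse. Chemicals were formulated in a non-phytotoxic solvent mixture with surfactant and applied to soil after planting or to emerged plants at the 1- to 4-leaf stage.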

corn = experiment: Test C pre-/postemergence herbicide test; assay type: in vivo, Zea mays
Procedure, shortened: as §2

johnsongrass = experiment: Test C pre-/postemergence herbicide test; assay type: in vivo, Sorghum halepense
Procedure, shortened: as §2

pigweed = experiment: Test C pre-/postemergence herbicide test; assay type: in vivo, Amaranthus retroflexus
Procedure, shortened: as §2

velvetleaf = experiment: Test C pre-/postemergence herbicide test; assay type: in vivo, Abutilon theophrasti
Procedure, shortened: as §2

[1] = Postemergence, 500 g ai/ha, 0 to 100 scale, 0 no effect, 100 complete control
[2] = Postemergence, 2000 g ai/ha, 0 to 100 scale, 0 no effect, 100 complete control
[3] = Preemergence, 2000 g ai/ha, visual rating, 0 to 100 scale (0 no effect, 100 complete control)
[4] = Postemergence, 500 g ai/ha, scale 0 to 100
[5] = Postemergence, 250 g ai/ha, scale 0 to 100, 0 no effect, 100 complete control
[6] = Preemergence, 500 g ai/ha, scale 0 to 100, 0 no effect, 100 complete control
[7] = postemergence, 125 g ai/ha, scale 0 to 100
[8] = postemergence, 62 g ai/ha, scale 0 to 100
[9] = 125 g ai/ha, scale 0 (no effect) to 100 (complete control), visual, 12 to 14 days, preemergence

CCN1N=C(C(C)(C)C)CC1C(=O)Nc1cc(C(=O)N(C)C)ccc1F (centres unmarked) [Compound 268, N-[5-[(dimethylamino)carbonyl]-2-fluorophenyl]-3-(1,1-dimethylethyl)-1-ethyl-4,5-dihydro-1H-pyrazole-5-carboxamide]
60%: pest or weed control at 125 g/ha (cocklebur; Xanthium strumarium, pre-emergence, 312 h, 125 g ai/ha, scale 0 (no effect) to 100 (complete control), visual, 12 to 14 days, read-out: Plant response rating, Cocklebur) | Corn plant response rating (crop injury, 0 = no effect, 100 = complete kill) at 250 g/ha (corn; Zea mays, pre-emergence, 312 h, 250 g ai/ha, scale 0-100) | pest or weed control at 62 g/ha (velvetleaf; Abutilon theophrasti, pre-emergence, 62 g ai/ha, preemergence, scale 0 to 100, read-out: Plant response rating, Velvetleaf)
35%: pest or weed control at 500 g/ha (redroot pigweed; post-emergence, Postemergence, 500 g ai/ha, 0 to 100 scale, 0 no effect, 100 complete control, read-out: Pigweed plant response rating)
10%: pest or weed control at 62 g/ha (cocklebur; Xanthium strumarium, pre-emergence, 312 h, 62 g ai/ha, preemergence, scale 0 to 100, read-out: Plant response rating, Cocklebur) | Corn plant response rating (crop injury, 0 = no effect, 100 = complete kill) at 62 g/ha (corn; Zea mays, pre-emergence, 312 h, 62 g ai/ha, preemergence, scale 0 to 100)
80%: pest or weed control at 500 g/ha (barnyardgrass; post-emergence, Postemergence, 500 g ai/ha, 0 to 100 scale, 0 no effect, 100 complete control, read-out: Barnyardgrass plant response rating) | pest or weed control at 2000 g/ha (barnyardgrass; post-emergence, Postemergence, 2000 g ai/ha, 0 to 100 scale, 0 no effect, 100 complete control, read-out: Plant response rating, Barnyardgrass)
85%: pest or weed control at 2000 g/ha (redroot pigweed; post-emergence, Postemergence, 2000 g ai/ha, 0 to 100 scale, 0 no effect, 100 complete control, read-out: Plant response rating, Pigweed) | pest or weed control at 500 g/ha (cocklebur; Xanthium strumarium, pre-emergence, 312 h, Preemergence, 500 g ai/ha, scale 0 to 100, 0 no effect, 100 complete control, read-out: Cocklebur plant response rating)
100%: pest or weed control at 2000 g/ha (barnyardgrass; pre-emergence, Preemergence, 2000 g ai/ha, visual rating, 0 to 100 scale (0 no effect, 100 complete control), read-out: Barnyardgrass plant response rating) | pest or weed control at 500 g/ha (barnyardgrass; pre-emergence, preemergence, 500 g ai/ha, visual injury, 0 to 100 scale (0 no effect, 100 complete control), read-out: Barnyardgrass plant response rating) | pest or weed control at 2000 g/ha (redroot pigweed; pre-emergence, Preemergence, 2000 g ai/ha, visual rating, 0 to 100 scale (0 no effect, 100 complete control), read-out: Pigweed plant response rating) | pest or weed control at 500 g/ha (redroot pigweed; pre-emergence, preemergence, 500 g ai/ha, visual injury, 0 to 100 scale (0 no effect, 100 complete control), read-out: Pigweed plant response rating) | pest or weed control at 250 g/ha (johnsongrass; Sorghum halepense, pre-emergence, 250 g ai/ha, scale 0-100, read-out: Plant response rating, Johnsongrass) | pest or weed control at 500 g/ha (johnsongrass; Sorghum halepense, pre-emergence, 500 g ai/ha, scale 0 to 100 (0 no effect, 100 complete control), visual, 12 to 14 days, read-out: Plant response rating, Johnsongrass) | pest or weed control at 62 g/ha (pigweed; Amaranthus retroflexus, pre-emergence, 62 g ai/ha, preemergence, scale 0 to 100, read-out: Plant response rating, Pigweed) | pest or weed control at 125 g/ha (pigweed; Amaranthus retroflexus, pre-emergence, 125 g ai/ha, scale 0 (no effect) to 100 (complete control), visual, 12 to 14 days, read-out: Plant response rating, Pigweed) | pest or weed control at 250 g/ha (pigweed; Amaranthus retroflexus, pre-emergence, 250 g ai/ha, scale 0-100, read-out: Plant response rating, Pigweed) | pest or weed control at 500 g/ha (pigweed; Amaranthus retroflexus, pre-emergence, 500 g ai/ha, scale 0 to 100 (0 no effect, 100 complete control), visual, 12 to 14 days, read-out: Plant response rating, Pigweed) | pest or weed control at 250 g/ha (velvetleaf; Abutilon theophrasti, pre-emergence, 250 g ai/ha, scale 0-100, read-out: Plant response rating, Velvetleaf) | pest or weed control at 500 g/ha (velvetleaf; Abutilon theophrasti, pre-emergence, 500 g ai/ha, scale 0 to 100 (0 no effect, 100 complete control), visual, 12 to 14 days, read-out: Plant response rating, Velvetleaf)
90%: plant injury at 125 g/ha (rice; Oryza sativa, pre-emergence, 336 h, 125 g ai/ha, 0 = no effect, 100 = complete control, read-out: Rice plant response rating (0 to 100 scale)) | plant injury at 500 g/ha (rice; Oryza sativa, pre-emergence, 336 h, 500 g ai/ha, visual rating, 0 = no effect, 100 = complete control, read-out: Plant response rating, Rice) | pest or weed control at 125 g/ha (johnsongrass; Sorghum halepense, pre-emergence, 125 g ai/ha, scale 0 (no effect) to 100 (complete control), visual, 12 to 14 days, read-out: Plant response rating, Johnsongrass)
70%: pest or weed control at 250 g/ha (cocklebur; Xanthium strumarium, pre-emergence, 312 h, 250 g ai/ha, scale 0-100, read-out: Plant response rating, Cocklebur) | Corn plant response rating (crop injury, 0 = no effect, 100 = complete kill) at 500 g/ha (corn; Zea mays, pre-emergence, 312 h, 500 g ai/ha, scale 0 to 100 (0 no effect, 100 complete control), visual, 12 to 14 days) | pest or weed control at 62 g/ha (johnsongrass; Sorghum halepense, pre-emergence, 62 g ai/ha, preemergence, scale 0 to 100, read-out: Plant response rating, Johnsongrass)
45%: Corn plant response rating (crop injury, 0 = no effect, 100 = complete kill) at 125 g/ha (corn; Zea mays, pre-emergence, 312 h, 125 g ai/ha, scale 0 (no effect) to 100 (complete control), visual, 12 to 14 days)

C#CCNC(=O)c1cccc(NC(=O)c2cc(C(C)(C)C)nn2CC)n1 [Compound 147]
0: Plant response rating, Rice (rice; 125 g ai/ha, 0 to 100 scale, 0 is no effect, 100 is complete control) | Plant response rating (0 = no effect, 100 = complete control), Cocklebur (cocklebur; 62 g ai/ha, preemergence) | Cocklebur plant response rating (cocklebur; [6]) | Plant response rating, Cocklebur (cocklebur; [8]) | Plant response rating (0 = no effect, 100 = complete control), Corn (corn; 62 g ai/ha, preemergence) | Plant response rating, Corn (corn; [9]) | Plant response rating, Corn (corn; 250 g ai/ha, scale 0 to 100 (0 no effect, 100 complete control), visual, 12 to 14 days, preemergence) | Plant response rating, Corn (corn; [8]) | Plant response rating (0 = no effect, 100 = complete control), Johnsongrass (johnsongrass; 62 g ai/ha, preemergence) | Plant response rating, Johnsongrass (johnsongrass; [8]) | Plant response rating, Velvetleaf (velvetleaf; [8])
95: Plant response rating, Barnyardgrass (barnyardgrass; [2]) | Barnyardgrass plant response rating (barnyardgrass; [3])
30: Plant response rating, Velvetleaf (velvetleaf; [7])
60: Corn plant response rating (corn; [6])
40: Barnyardgrass plant response rating (barnyardgrass; Preemergence, 500 g ai/ha, visual rating, 0 to 100 scale (0 no effect, 100 complete control)) | Plant response rating, Johnsongrass (johnsongrass; [9]) | Velvetleaf plant response rating (velvetleaf; [4])
100: Plant response rating, Pigweed (redroot pigweed; [2]) | Pigweed plant response rating (redroot pigweed; [3]) | Pigweed plant response rating (pigweed; [4]) | Plant response rating, Pigweed (pigweed; [5]) | Pigweed plant response rating (pigweed; [6])
85: Pigweed plant response rating (redroot pigweed; preemergence, 500 g ai/ha, visual injury, 0 to 100 scale (0 no effect, 100 complete control))
55: Barnyardgrass plant response rating (barnyardgrass; [1])
90: Pigweed plant response rating (redroot pigweed; [1]) | Plant response rating, Pigweed (pigweed; [9]) | Plant response rating, Pigweed (pigweed; [7]) | Plant response rating, Pigweed (pigweed; [8]) | Velvetleaf plant response rating (velvetleaf; [6])
15: Corn plant response rating (corn; [4])
80: Johnsongrass plant response rating (johnsongrass; [6])
20: Cocklebur plant response rating (cocklebur; [4]) | Plant response rating (0 = no effect, 100 = complete control), Pigweed (pigweed; 62 g ai/ha, preemergence) | Plant response rating, Velvetleaf (velvetleaf; [9])
10: Plant response rating, Rice (rice; 500 g ai/ha, visual rating 0-100, 0 no effect, 100 complete control) | Plant response rating, Corn (corn; [5]) | Johnsongrass plant response rating (johnsongrass; [4]) | Plant response rating, Johnsongrass (johnsongrass; [5])
5: Plant response rating, Cocklebur (cocklebur; [5]) | Plant response rating, Cocklebur (cocklebur; [7]) | Plant response rating, Corn (corn; [7])

— US20060069132A1, “Azolecarboxamide herbicides” (priority 2004, published 2006)
